Calls of active or inactive are those of the source. Where only a bound is given, the exact number is not on record here.

Assay [1] can be described thus: human group III sPLA2 inhibitors, dose response, biochemical, QFRET, IC50 (AID 743457).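 Also: green fluorescence rise as the enzyme cleaves BODIPY PC-A2 in liposomes; potency for inhibition of the enzyme.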
For assay [2], the target named is T1, Fructose-bisphosphate aldolase (Mycobacterium tuberculosis, UniProt P9WQA3).
T1 sequence (P9WQA3 whole entry): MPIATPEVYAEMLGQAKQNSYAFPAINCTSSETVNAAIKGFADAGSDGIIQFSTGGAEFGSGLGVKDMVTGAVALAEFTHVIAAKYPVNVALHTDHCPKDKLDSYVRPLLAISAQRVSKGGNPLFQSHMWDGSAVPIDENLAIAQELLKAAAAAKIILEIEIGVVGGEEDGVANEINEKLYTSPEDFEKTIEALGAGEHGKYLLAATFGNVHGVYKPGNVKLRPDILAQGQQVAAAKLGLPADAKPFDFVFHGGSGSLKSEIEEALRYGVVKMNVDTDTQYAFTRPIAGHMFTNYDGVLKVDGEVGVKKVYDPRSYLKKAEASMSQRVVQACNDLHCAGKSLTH
Description: Fluorescence-based biochemical high throughput dose response assay for inhibitors of the fructose-bisphosphate aldolase (FBA) of M. tuberculosis. The format is functional.

Assay [3] deals with Glyceraldehyde-3-phosphate dehydrogenase (Homo sapiens, UniProt P04406).
The target in assay [4] is T2, Long-chain-fatty-acid--AMP ligase FadD28 (Mycobacterium tuberculosis, UniProt P9WQ59).
T2 sequence (P9WQ59 whole entry): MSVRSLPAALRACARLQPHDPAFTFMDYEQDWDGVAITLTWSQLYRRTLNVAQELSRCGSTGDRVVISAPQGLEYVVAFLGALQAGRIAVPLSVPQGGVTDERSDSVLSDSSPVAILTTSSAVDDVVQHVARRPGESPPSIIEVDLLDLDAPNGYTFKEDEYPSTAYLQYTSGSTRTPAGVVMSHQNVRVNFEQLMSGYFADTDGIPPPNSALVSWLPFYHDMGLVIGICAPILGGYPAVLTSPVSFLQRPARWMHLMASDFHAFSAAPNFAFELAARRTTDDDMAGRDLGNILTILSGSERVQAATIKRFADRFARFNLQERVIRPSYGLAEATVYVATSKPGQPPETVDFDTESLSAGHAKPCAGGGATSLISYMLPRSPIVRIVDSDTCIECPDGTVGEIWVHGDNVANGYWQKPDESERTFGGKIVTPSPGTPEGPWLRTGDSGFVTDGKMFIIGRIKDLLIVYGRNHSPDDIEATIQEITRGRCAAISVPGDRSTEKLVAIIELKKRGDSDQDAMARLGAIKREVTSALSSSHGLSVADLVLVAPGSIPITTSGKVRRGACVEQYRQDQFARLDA
Description: Fluorescence polarization aasay to screen for inhibitors that compete for the binding of FadD28 to a bisubstrate Measured in Biochemical System Using Plate Reader - 2147-01_Inhibitor_Dose_CherryPick_Activity. The format is functional, Mycobacterium tuberculosis H37Rv. For orientation: Fluorescence polarisation rises when a labelled molecule tumbles more slowly, as on binding a larger partner.

A short description of assay [5]: MC4R antagonists, dose response, counter-screen for LGR2 antagonist project, cell-based, plate reader, cherry pick (AID 743444).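 Also: transfected HEK 293 cells stimulated with alpha-MSH peptide; potency of inhibitors of the alpha-MSH evoked signal.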 It counts as functional. (In general: A counterscreen serves to expose hits that act by an unwanted route or on another target.)
Assay [6] in a line: LGR2 antagonists, dose response, cell-based, HEK293, CRE-luciferase reporter, cherry pick, set 2 (AID 743343).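 Also: transfected cells were stimulated with diluted bursicon conditioned medium after compound addition.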 It counts as functional. (In a reporter assay the amount or activity of a reporter protein is the signal.)
Assay [7] can be described thus: A549 cell cytotoxicity, dose response, cytotoxicity control, plate reader, cherry-pick, antagonist series (AID 743412). It counts as functional, cell-based.
For assay [8], the target named is Photoreceptor-specific nuclear receptor (Homo sapiens, UniProt Q9Y5X4). It counts as functional, cell-based.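 Also: CHO-S cells with Gal4-NCOR and VP16-NR2E3 two-hybrid luciferase reporter.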
For assay [9], the target named is T3, Oxysterols receptor LXR-beta (Homo sapiens, UniProt P55055).
T3 sequence (P55055 whole entry): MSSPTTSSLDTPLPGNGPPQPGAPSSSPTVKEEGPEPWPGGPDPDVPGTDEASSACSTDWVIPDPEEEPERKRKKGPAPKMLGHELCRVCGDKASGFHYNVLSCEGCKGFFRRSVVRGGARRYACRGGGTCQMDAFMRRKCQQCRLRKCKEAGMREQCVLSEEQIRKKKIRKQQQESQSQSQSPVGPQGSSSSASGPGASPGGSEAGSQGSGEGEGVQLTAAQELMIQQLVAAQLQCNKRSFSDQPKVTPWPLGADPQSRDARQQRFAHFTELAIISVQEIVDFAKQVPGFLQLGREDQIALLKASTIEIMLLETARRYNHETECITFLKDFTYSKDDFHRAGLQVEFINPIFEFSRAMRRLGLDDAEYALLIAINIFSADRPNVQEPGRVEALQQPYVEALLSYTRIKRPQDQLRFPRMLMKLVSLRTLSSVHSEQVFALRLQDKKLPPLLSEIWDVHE
The format is functional, cell-based.

For assay [10], the target named is T3, Oxysterols receptor LXR-beta. Description: LXR agonists, Gal4 luciferase reporter, dose response, counter-screen for ssDAF-12 agonist project, cell-based, luminescence, HEK293, S. stercoralis campaign (AID 720737). It counts as functional. As to conditions: read-out: IC50 (the source's name).
Assay [11] is described as follows: Luminescence-based cell-based high throughput dose response assay to identify activators of the DAF-12 from the parasite S. stercoralis (ssDAF-12). It counts as functional.
Assay [12] concerns the target Nonstructural protein 1 (Influenza A virus, UniProt Q194T2). The format is functional, Influenza A virus (A/California/07/2009(H1N1)).
Assay [13] in a line: cytotoxicity in HEK-293T cells, dose response, cytotoxicity control for TCR NF-kB inhibitor project, luminescence, T-cell screen hits (AID 489026).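 Also: cells exposed to compound about 14 hours before the viability readout.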 It counts as functional, cell-based.
Assay [14] can be described thus: HeLa cell cytotoxicity, dose response, cytotoxicity control for MgcRacGAP inhibitor project (AID 624300). The format is functional.
Assay [15] concerns INS1. Description: beta cell apoptosis inhibitors, cytokine rescue, dose response, luminescence, retest (AID 449756).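 Also: cell death triggered by IL-1 beta plus TNF-alpha plus IFN-gamma mixture; protective hits raise ATP signal compared with cytokine alone wells.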 The format is functional, cell-based. As to conditions: Rattus norvegicus.
The target in assay [16] is T4, Apoptotic protease-activating factor 1 (Homo sapiens, UniProt O14727).
T4 sequence (O14727 whole entry): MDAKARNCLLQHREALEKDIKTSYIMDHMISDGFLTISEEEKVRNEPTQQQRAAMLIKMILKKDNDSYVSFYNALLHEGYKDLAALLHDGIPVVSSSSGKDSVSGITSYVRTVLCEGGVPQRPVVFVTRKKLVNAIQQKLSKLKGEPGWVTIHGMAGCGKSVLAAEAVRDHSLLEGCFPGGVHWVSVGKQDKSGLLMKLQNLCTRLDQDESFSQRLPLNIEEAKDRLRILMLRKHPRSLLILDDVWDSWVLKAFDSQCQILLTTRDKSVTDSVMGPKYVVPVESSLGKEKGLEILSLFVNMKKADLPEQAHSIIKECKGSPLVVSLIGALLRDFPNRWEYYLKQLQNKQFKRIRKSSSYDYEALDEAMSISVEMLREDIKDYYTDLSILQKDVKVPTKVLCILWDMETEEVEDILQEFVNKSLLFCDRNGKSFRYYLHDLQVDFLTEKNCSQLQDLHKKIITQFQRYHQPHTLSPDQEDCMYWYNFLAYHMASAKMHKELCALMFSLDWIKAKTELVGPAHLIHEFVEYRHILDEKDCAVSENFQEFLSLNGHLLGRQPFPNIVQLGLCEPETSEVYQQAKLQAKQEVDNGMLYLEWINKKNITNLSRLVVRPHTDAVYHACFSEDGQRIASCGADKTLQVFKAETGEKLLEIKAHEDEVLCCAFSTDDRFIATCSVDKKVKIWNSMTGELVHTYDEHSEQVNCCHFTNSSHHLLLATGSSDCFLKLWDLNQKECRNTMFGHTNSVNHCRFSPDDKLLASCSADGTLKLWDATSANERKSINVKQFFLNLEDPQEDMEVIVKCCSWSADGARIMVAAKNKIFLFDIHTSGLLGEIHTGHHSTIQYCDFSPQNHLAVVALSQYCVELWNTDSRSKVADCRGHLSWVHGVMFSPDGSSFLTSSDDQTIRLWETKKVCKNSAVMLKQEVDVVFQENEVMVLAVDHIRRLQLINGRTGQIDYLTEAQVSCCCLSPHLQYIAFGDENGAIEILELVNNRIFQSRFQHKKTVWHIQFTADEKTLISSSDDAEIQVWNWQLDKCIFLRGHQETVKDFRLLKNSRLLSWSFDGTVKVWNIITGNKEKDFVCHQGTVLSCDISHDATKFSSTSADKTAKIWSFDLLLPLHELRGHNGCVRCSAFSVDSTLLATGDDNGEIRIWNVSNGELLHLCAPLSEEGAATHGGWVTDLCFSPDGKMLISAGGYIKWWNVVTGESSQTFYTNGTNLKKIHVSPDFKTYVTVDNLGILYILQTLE
The format is functional.

Assay [17] addresses T5, Rac GTPase-activating protein 1 (Homo sapiens, UniProt Q9H0H5).
T5 sequence (Q9H0H5 whole entry): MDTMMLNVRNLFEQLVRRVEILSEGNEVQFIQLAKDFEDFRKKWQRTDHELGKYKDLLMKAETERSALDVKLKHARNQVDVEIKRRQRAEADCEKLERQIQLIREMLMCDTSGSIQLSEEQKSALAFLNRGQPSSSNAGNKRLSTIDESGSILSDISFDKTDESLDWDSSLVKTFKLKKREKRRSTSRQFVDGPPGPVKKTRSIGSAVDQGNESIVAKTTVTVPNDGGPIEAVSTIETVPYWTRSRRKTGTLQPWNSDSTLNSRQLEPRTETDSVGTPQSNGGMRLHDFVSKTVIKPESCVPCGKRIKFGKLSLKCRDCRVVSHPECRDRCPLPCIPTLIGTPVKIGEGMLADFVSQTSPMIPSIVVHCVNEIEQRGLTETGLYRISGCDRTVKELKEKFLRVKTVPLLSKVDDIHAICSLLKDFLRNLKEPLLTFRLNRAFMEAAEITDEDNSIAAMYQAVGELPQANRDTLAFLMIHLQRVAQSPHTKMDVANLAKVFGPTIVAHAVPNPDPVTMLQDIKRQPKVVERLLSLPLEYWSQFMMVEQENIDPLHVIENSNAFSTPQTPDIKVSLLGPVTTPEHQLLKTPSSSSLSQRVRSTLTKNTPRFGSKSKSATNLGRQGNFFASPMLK
Description: MgcRacGAP GTPase-activating activity inhibitors, confirmation, biochemical, ADP Hunter fluorescence, primary and confirmatory (AID 624330). It counts as functional.

Assay [18] addresses Cytochrome P450 3A4 (Homo sapiens, UniProt P08684).
The target in assay [19] is Cytochrome P450 2D6 (Homo sapiens, UniProt P10635).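 Also: CYP2D6 member of a cytochrome P450 panel assay.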
The target in assay [20] is T6, Cytochrome P450 1A2 (Homo sapiens, UniProt P05177).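 Also: PubChem cytochrome P450 panel assay, CYP1A2 panel member.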
T6 sequence (P05177 whole entry): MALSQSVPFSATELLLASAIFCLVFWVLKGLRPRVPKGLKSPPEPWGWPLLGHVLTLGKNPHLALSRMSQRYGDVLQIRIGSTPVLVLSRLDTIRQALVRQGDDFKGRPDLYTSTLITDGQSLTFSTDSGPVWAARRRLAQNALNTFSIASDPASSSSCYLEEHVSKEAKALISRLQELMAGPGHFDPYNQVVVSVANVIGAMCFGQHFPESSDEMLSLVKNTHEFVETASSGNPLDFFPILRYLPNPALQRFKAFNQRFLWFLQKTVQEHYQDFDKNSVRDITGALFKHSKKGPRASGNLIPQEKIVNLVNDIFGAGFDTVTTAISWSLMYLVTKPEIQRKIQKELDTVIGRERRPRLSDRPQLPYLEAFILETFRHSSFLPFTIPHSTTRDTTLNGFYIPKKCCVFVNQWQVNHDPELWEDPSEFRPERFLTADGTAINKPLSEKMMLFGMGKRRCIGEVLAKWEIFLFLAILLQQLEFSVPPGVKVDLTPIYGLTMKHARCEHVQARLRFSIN

Chain of Cytochrome P450 3A4 (P08684 whole entry): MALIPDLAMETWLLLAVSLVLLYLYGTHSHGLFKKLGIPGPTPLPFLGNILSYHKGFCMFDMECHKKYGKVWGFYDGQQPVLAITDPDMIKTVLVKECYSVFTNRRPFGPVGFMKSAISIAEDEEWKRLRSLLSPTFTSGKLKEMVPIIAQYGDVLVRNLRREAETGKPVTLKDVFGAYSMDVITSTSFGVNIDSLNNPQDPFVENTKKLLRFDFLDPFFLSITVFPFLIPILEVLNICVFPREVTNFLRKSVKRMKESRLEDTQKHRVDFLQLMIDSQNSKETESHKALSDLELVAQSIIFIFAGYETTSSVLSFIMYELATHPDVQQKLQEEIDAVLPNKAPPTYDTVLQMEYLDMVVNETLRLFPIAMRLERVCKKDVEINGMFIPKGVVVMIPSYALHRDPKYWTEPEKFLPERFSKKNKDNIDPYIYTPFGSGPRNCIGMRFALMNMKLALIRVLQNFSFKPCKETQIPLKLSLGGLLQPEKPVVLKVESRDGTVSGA
Chain of Glyceraldehyde-3-phosphate dehydrogenase (P04406 whole entry): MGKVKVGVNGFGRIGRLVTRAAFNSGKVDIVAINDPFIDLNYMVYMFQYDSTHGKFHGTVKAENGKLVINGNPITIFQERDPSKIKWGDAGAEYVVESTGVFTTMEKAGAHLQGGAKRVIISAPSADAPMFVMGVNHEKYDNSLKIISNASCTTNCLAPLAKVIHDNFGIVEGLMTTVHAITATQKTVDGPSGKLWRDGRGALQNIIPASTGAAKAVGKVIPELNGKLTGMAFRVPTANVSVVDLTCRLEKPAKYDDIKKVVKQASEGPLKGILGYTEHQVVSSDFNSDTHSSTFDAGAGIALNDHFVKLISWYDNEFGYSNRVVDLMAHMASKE
Chain of Nonstructural protein 1 (Q194T2 whole entry): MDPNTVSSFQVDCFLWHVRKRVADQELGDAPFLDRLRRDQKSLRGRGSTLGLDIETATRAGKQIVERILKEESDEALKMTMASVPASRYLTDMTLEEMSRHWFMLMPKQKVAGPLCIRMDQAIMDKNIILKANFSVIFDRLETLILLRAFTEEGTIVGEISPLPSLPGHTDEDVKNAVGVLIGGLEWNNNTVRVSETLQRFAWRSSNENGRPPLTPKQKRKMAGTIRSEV
Chain of Photoreceptor-specific nuclear receptor (Q9Y5X4 whole entry, the tested form may be a part): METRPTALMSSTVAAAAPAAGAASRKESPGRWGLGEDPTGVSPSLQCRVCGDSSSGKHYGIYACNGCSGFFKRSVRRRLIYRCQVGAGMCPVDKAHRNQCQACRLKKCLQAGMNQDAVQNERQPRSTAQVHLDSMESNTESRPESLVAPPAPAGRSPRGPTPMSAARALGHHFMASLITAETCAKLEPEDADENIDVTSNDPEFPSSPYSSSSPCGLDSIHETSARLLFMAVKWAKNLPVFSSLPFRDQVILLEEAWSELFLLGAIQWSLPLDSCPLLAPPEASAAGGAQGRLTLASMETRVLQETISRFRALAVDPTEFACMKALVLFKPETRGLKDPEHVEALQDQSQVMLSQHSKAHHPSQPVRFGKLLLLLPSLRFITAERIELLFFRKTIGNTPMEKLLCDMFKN
Chain of Cytochrome P450 2D6 (P10635 whole entry): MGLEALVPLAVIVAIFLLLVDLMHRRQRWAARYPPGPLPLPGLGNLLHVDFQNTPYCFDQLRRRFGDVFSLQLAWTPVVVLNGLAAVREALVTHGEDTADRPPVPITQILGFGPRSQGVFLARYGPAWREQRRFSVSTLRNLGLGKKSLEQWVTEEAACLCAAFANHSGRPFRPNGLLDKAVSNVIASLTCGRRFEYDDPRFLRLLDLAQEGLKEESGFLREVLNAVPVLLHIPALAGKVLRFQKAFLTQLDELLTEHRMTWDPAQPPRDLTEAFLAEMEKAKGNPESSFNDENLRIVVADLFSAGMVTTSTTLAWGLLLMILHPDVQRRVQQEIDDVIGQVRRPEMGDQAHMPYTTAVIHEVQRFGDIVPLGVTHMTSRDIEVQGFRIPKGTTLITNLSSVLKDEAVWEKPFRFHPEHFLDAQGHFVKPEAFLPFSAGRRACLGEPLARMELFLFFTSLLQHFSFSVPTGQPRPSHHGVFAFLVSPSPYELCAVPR

Regarding `O=C(CSc1nnc(-c2ccccc2)n1-c1ccc(Cl)cc1)NNC(=S)Nc1ccccc1`, in [1], the IC50 is > 122 µM (inactive).
As for `O=C(O)c1cc(S(=O)(=O)Nc2ccccc2C(=O)O)ccc1O`, the IC50 was > 9.99 µM (inactive) in [2] and > 100 µM (not active) in assay [3].
Regarding `CCOC(=O)N1CCC(NC(=O)c2cc3cc4cc(OC)ccc4nc3o2)CC1`, the IC50 in [2] was > 0.37 µM (active).
As to `Cc1cccc(NC(=O)CN2C(=O)N/C(=C\c3ccc(-c4cccc(C(=O)O)c4)o3)C2=O)c1`, in [4], the AC50 was 3.6 µM (active).
`CC(C)(C)n1cc(C(=O)c2ccc3ccccc3c2O)cn1`: the concentration at half-maximal activity (AC50) in assay [5] is 14.3 µM (active); in [6], 6.45 µM (active); in assay [7], > 52 µM (inactive).
In the case of `Cc1ccnc(NC(=O)C2CCN(S(=O)(=O)c3c(C)c(C)cc(C)c3C)CC2)c1`, the IC50 in assay [8] was 1.85 µM (active). Moreover, the EC50 in assay [9] is > 67.6 µM (inactive).
Regarding `O=C1/C(=C\c2cccs2)Sc2ccc3ccccc3c21`, the EC50 in assay [10] is > 67.6 µM (inactive); in assay [9] it was > 67.5 µM (inactive). Moreover, the IC50 in [11] was > 67.6 µM (inactive).
Regarding `Cc1ccc(S(=O)(=O)NC2=CC(=Nc3ccc(O)cc3)C(=O)c3ccccc32)cc1`, the half-inhibitory concentration (IC50) is 7.33 µM (active) in [12], 1.58 µM (active) in [13], 2.14 µM (active) in assay [16] and 78.2 µM (active) in assay [17]. In assay [14], the CC50 is 2.86 µM (active). Further, the AC50 in assay [15] is 0.588 µM (active).
On to `COc1ccc(CNC(=O)COC(=O)c2ccc(Br)c(S(=O)(=O)N3CCOCC3)c2)cc1`, for which, in assay [4], the AC50 was > 100 µM (inactive).
Take `Cc1ccc(-c2nnc(SCC(=O)NN=C(S)Nc3ccccc3)n2C2CCCCC2)cc1`: the IC50 in assay [1] was > 122 µM (inactive).
The same measure, in the same setting: to `O=[N+]([O-])c1ccccc1/C=N/n1c(S)nnc1C1CCCCC1` belongs > 122 µM (inactive).
With `CCN(CC)c1ccc(/C=N/NC(=O)c2ccc3c(c2)OCCO3)cc1`, the AC50 in assay [4] was 74.2 µM (active).
For `NC(=Nc1ccccc1)NC(=O)c1nc(Cl)c(N)nc1N` [PHENAMIL METHANESULFONATE], the half-maximal activity concentration (AC50) in [18] was 39.8 µM (inconclusive); in assay [19] it was 31.6 µM (inconclusive); in [20] it was 12.6 µM (inconclusive). For the same molecule, in assay [9], the EC50 was > 67.5 µM (inactive).

As a reminder, the IC50 is the point on the concentration scale where inhibition reaches its midpoint. By AC50 is commonly meant the concentration giving half of the maximal activity seen. One may read the CC50 as the concentration that lowers cell viability or growth by half.

Source of the values: ChEMBL document CHEMBL1201862, “PubChem BioAssay data set” (2004).
